Source: patent US20150073159A1, “Solid State Forms Of Cabazitaxel And Processes For Preparation Thereof” (PLUS CHEMICALS SA, priority 2011, published 2015)

Assays:
[1] = Hygroscopicity and stability test (exposure to controlled relative humidity; water content by Karl-Fischer, form by PXRD); assay type: physicochemical; conditions: for % water content: Karl-Fischer coulometric titration; for Conversion to other forms of Cabazitaxel (in words) / Hygroscopicity (in words): normal atmospheric humidity, 60%, 80% and 100% RH
Method: (§1) Powder X-ray Diffraction was performed on an X-Ray powder diffractometer: PanAlytical X'pert Pro; CuKα radiation (λ=1.5418 Å); X'Celerator detector with active length 2.122 degrees 2-theta; laboratory temperature 22-25° C.; zero background sample holders. Prior to analysis, the samples were gently ground using a mortar and pestle to obtain a fine powder. The ground sample was adjusted into a cavity of the sample holder and the surface of the sample was smoothed using a cover glass.
A silicon powder internal standard was used to calibrate the peak positions and to eliminate an effect of the sample preparation. […] The internal standard powder can be mixed with a sample The PXRD diffractogram is then acquired and the current position of the aforementioned internal standard diffraction peak is determined. The difference between the current position of the diffraction and its nominal value of 28.44 degrees 2-theta is calculated. The current positions of all relevant sample peaks are then corrected using the above difference to obtain the true positions of the sample diffractions. The confidence interval for the peak positions was determined to be ±0.1 degrees 2-theta.
Scan range: 3-40 degrees 2-theta; Scan mode: continuous; Step size: 0.0167 degrees; Time per step: 42 s; Sample spin: 16 rpm; Sample holder: zero background silicon plate.
About 100 mg of a sample was placed to a cell with controlled relative humidity. The samples were exposed to 60%, 80% and 100% relative humidity, at a temperature of about room temperature, for a period of about two days. XRPD analysis and water content by Karl-Fischer coulometric titration were carried out before and after the exposure to the defined relative humidity.
Water was determined by KF Oven method (832 KF Thermoprep connected to 831 KF Coulometer). Water from the sample (50 mg of cabazitaxel) was released by nitrogen stream at 130° C. Extraction time was 10 minutes.

[2] = Polymorphic stability on storage (conversion measured by PXRD); assay type: physicochemical
Method: As used herein, and unless indicated otherwise, the term “polymorphic stability” in relation to the crystalline forms of Cabazitaxel means that there is less than 20%, 10%, 5%, 1%, 0.5% or 0.1% conversion of crystalline Cabazitaxel to any other solid state form of Cabazitaxel under the specified conditions, as measured by PXRD. In some embodiments, the conversion is 0.5%-20%, 0.5%-10% or 0.5%-5% or 0.5%-1% or 0.1%-1%, or 0.1%-0.5%.
as §1

[3] = 60% RH, about room temperature, about two days
[4] = 80% RH, about room temperature, about two days
[5] = 100% RH, about room temperature, about two days

Row | Compound | Form (crystalline structure determined by PXRD) [1, 3] | % water content [1, 3] [%] | Form (crystalline structure determined by PXRD) [1, 4] | % water content [1, 4] [%] | Form (crystalline structure determined by PXRD) [1, 5] | % water content [1, 5] [%] | Form (crystalline structure determined by PXRD) ([1]; Atmospheric RH) | % water content ([1]; Atmospheric RH) [%] | Conversion to other forms of Cabazitaxel (in words) ([1]; about room temperature) | Hygroscopicity (in words) ([1]; about room temperature) | Period of polymorphic stability ([2]; about 25° C. and 60% relative humidity) | Period of polymorphic stability ([2]; about 40° C. and 75% RH)
1 | CO[C@H]1C(=O)[C@]2(C)[C@@H](OC)C[C@H]3OC[C@@]3(OC(C)=O)[C@H]2[C@H](OC(=O)c2ccccc2)[C@]2(O)C[C@H](OC(=O)[C@H](O)[C@@H](NC(=O)OC(C)(C)C)c3ccccc3)C(C)=C1C2(C)C [Form I, Cabazitaxel] | Form I | 0.13 | Form I | 0.14 | Form I | 0.14 | Form I | 0.05 | does not convert to any other forms of Cabazitaxel | low-hygroscopicity form |  | 
2 | CO[C@H]1C(=O)[C@]2(C)[C@@H](OC)C[C@H]3OC[C@@]3(OC(C)=O)[C@H]2[C@H](OC(=O)c2ccccc2)[C@]2(O)C[C@H](OC(=O)[C@H](O)[C@@H](NC(=O)OC(C)(C)C)c3ccccc3)C(C)=C1C2(C)C [Form II, Cabazitaxel] | Form II | 0.07 | Form II | 0.09 | Form II | 0.11 | Form II | 0.02 | does not convert to any other forms of Cabazitaxel | low-hygroscopicity form |  | 
3 | CO[C@H]1C(=O)[C@]2(C)[C@@H](OC)C[C@H]3OC[C@@]3(OC(C)=O)[C@H]2[C@H](OC(=O)c2ccccc2)[C@]2(O)C[C@H](OC(=O)[C@H](O)[C@@H](NC(=O)OC(C)(C)C)c3ccccc3)C(C)=C1C2(C)C [Form III, Cabazitaxel] | Form III | 0.14 | Form III | 0.23 | Form III | 0.19 | Form III | 0.05 | does not convert to any other solid state forms of Cabazitaxel | low-hygroscopicity form | at least 6 months | at least 6 months
4 | CO[C@H]1C(=O)[C@]2(C)[C@@H](OC)C[C@H]3OC[C@@]3(OC(C)=O)[C@H]2[C@H](OC(=O)c2ccccc2)[C@]2(O)C[C@H](OC(=O)[C@H](O)[C@@H](NC(=O)OC(C)(C)C)c3ccccc3)C(C)=C1C2(C)C [Form IV, Cabazitaxel] | Form IV | 0.07 | Form IV | 0.09 | Form IV | 0.09 | Form IV | 0.01 | does not convert to any other forms of Cabazitaxel | low-hygroscopicity form |  | 
5 | CO[C@H]1C(=O)[C@]2(C)[C@@H](OC)C[C@H]3OC[C@@]3(OC(C)=O)[C@H]2[C@H](OC(=O)c2ccccc2)[C@]2(O)C[C@H](OC(=O)[C@H](O)[C@@H](NC(=O)OC(C)(C)C)c3ccccc3)C(C)=C1C2(C)C [Form V, Cabazitaxel] | Form V | 0.21 | Form V | 0.30 | Form V | 0.68 | Form V | 0.08 | does not convert to any other forms of Cabazitaxel | low—hygroscopicity form |  | 
